In ChEMBL document CHEMBL5537153, “Modifications to 1-(4-(2-Bis(4-fluorophenyl)methyl)sulfinyl)alkyl Alicyclic Amines That Improve Metabolic Stability and Retain an Atypical DAT Inhibitor Profile” (J Med Chem, 2024):

Assays:
[1] = target: Sodium-dependent dopamine transporter (Rattus norvegicus, UniProt P23977); assay: Displacement of [3H]WIN35428 from DAT in Sprague-Dawley rat striatum incubated for 120 mins by scintillation counting analysis; type: tissue-based
Rattus norvegicus = organism: Rattus norvegicus; assay: Selectivity ratio of Ki for SERT in Sprague-Dawley rat brainstem to Ki for DAT in Sprague-Dawley rat striatum
[2] = target: Sodium-dependent serotonin transporter (Rattus norvegicus, UniProt P31652); assay: Displacement of [3H]citalopram from SERT in Sprague-Dawley rat brainstem incubated for 60 mins by scintillation counting analysis; type: tissue-based
Sequence of Sodium-dependent serotonin transporter (P31652 whole entry): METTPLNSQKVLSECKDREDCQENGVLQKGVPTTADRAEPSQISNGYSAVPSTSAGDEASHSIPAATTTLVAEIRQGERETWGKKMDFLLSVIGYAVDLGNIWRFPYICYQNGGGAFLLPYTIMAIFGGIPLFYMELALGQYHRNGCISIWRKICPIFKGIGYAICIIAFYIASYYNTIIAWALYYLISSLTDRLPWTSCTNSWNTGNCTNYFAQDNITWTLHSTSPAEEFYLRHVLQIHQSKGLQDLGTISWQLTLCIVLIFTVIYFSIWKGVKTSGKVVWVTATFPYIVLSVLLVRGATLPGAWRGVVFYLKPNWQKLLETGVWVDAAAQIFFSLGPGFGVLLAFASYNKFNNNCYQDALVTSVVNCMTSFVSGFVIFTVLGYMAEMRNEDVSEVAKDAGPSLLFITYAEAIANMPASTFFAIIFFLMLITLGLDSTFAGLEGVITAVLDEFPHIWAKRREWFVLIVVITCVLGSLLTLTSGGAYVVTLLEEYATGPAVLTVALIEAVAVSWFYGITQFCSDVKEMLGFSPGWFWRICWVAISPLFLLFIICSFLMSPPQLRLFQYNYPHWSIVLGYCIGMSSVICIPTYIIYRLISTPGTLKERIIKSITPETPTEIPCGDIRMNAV

[3] = Metabolic stability of the compound in mouse liver microsomes assessed as parent compound remaining at 10 uM measured after 60 mins in presence of NADPH regenerating system by LC/MS analysis; type: ADME, Microsome; conditions: read-out: Stability
[4] = Inhibition of [3H]dopamine uptake from human DAT Y335A mutant expressed in COS-7 cells preincubated for 30 mins followed by [3H]dopamine addition and measured after 10 mins by beta scintillation counting analysis; type: cell-based
[5] = Displacement of [3H]WIN35428 from human DAT Y156F mutant expessed in COS-7 cells incubated for 1.5 hrs by beta scintillation counting analysis; type: cell-based
[6] = Induction of behavioural effects in wild type C57BL/6J mouse assessed as increase in locomotor activity at 30 mg/kg, ip measured after 20 mins by open field test; type: toxicity, organism-based; conditions: in vivo
[7] = target: T1, Sodium-dependent dopamine transporter (Homo sapiens, UniProt Q01959); assay: Inhibition of [3H]dopamine uptake from wild type human DAT expressed in COS-7 cells preincubated for 30 mins followed by [3H]dopamine addition and measured after 5 mins by beta scintillation counting analysis; type: cell-based
T1 sequence (Q01959 whole entry): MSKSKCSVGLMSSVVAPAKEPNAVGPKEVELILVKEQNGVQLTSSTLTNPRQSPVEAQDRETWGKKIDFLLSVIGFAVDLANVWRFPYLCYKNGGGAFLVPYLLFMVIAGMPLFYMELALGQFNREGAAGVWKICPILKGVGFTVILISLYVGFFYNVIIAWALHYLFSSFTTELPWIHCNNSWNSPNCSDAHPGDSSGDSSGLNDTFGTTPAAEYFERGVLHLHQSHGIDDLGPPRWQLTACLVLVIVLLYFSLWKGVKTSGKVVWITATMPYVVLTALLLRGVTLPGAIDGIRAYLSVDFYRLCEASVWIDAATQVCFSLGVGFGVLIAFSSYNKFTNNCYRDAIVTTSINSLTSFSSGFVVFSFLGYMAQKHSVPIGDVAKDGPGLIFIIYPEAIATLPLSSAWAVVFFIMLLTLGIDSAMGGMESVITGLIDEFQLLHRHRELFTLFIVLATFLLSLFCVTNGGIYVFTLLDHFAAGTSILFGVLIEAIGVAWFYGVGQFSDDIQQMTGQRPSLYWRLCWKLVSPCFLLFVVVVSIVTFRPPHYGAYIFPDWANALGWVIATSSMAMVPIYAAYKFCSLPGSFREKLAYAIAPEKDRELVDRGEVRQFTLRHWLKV

[8] = target: T1, Sodium-dependent dopamine transporter; assay: Displacement of [3H]WIN35428 from wild type human DAT expressed in COS-7 cells incubated for 1.5 hrs by scintillation counting analysis; type: cell-based
[9] = Displacement of [3H]nisoxetine from NET in Sprague-Dawley rat prefrontal cortex incubated for 180 mins by microbeta microscintillation counting analysis; type: tissue-based
[10] = Induction of behavioural effects in wild type C57BL/6J mouse assessed as locomotor activity at 3 to 30 mg/kg, ip measured every 10 mins for 3 hrs by open field test; type: toxicity, organism-based; conditions: in vivo, dose 3-30 mg/kg
[11] = Metabolic stability of the compound in rat liver microsomes assessed as parent compound remaining at 10 uM measured after 60 mins in presence of NADPH regenerating system by LC/MS analysis; type: ADME, Microsome; conditions: for Stability: microsomes, 1 h, 10 µM

Sequence of Sodium-dependent dopamine transporter (Rattus norvegicus, UniProt P23977) (P23977 whole entry): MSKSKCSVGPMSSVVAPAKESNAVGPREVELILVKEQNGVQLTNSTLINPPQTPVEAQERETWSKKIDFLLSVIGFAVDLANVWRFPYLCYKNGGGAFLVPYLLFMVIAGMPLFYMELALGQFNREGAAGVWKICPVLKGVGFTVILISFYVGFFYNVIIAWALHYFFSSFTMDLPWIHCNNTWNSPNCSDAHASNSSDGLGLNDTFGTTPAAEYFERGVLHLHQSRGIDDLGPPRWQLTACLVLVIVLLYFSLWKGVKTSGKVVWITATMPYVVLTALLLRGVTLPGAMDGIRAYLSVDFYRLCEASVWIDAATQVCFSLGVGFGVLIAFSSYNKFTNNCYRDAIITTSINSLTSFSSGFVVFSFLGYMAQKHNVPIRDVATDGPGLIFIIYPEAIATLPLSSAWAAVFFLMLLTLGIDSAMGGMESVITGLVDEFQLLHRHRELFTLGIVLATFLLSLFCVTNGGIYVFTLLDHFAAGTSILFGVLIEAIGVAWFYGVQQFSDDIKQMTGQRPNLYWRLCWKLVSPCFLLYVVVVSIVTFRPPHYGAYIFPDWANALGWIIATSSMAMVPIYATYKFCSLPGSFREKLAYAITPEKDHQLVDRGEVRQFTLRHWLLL

`Fc1ccc(C(SCCN2CCN(c3ncccn3)CC2)c2ccc(F)cc2)cc1` gave a Ki [1] of 725 nM, a Ratio Ki (Rattus norvegicus) of 1 and a Ki [2] of 923 nM.
`CC(O)CN1CCN(CCSC(c2ccc(F)cc2)c2ccc(F)cc2)CC1` (configuration not stated) showed a remaining at 1 h, 10 µM [3] of 6%.
With `COc1ccc(N2CCN(CC[S+]([O-])C(c3ccc(F)cc3)c3ccc(F)cc3)CC2)cc1` (configuration not stated) the Ki [1] was 6300 nM, the Ratio Ki (Rattus norvegicus) was 3 and the Ki [2] was 18100 nM.
For `[O-][S+](CCN1CCN(CC(O)Cc2ccccc2)CC1)C(c1ccc(F)cc1)c1ccc(F)cc1` (configuration not stated), the Ki [4] was 537 nM, the Ki [5] was 116 nM and the Activity [6] was “Toxic”. It also gave a remaining at 1 h, 10 µM [3] of 34%, a Ki [7] of 0.806 nM and a Ki [8] of 10.7 nM.
Molecule `OC(Cc1ccccc1)CN1CCC(CCSC(c2ccc(F)cc2)c2ccc(F)cc2)CC1` (configuration not stated) has a Ki [1] of 5.83 nM, a Ratio Ki (Rattus norvegicus) of 34 and a Ki [2] of 201 nM.
`CC(F)CN1[C@H](C)CN(CCSC(c2ccc(F)cc2)c2ccc(F)cc2)C[C@@H]1C` (some centres not stated) showed a Ki [1] of 135 nM, a Ratio Ki (Rattus norvegicus) of 99 and a Ki [2] of 13400 nM.
With `C[C@H](O)CN1CCC(CC[S+]([O-])C(c2ccc(F)cc2)c2ccc(F)cc2)CC1` (some centres not stated) the Ki [1] was 382 nM, the Ratio Ki (Rattus norvegicus) was 37 and the Ki [2] was 14300 nM.
In the case of `CC(O)CN1CCC(CCSC(c2ccc(F)cc2)c2ccc(F)cc2)CC1` (configuration not stated), the Ki [1] is reported as 67 nM, the Ratio Ki (Rattus norvegicus) is reported as 29 and the Ki [2] is reported as 1920 nM.
Work on `OC(Cc1ccc(F)cc1)CN1CCCN(CCSC(c2ccc(F)cc2)c2ccc(F)cc2)CC1` (configuration not stated) yielded a Ki [1] of 14.3 nM, a Ratio Ki (Rattus norvegicus) of 35 and a Ki [2] of 504 nM.
Work on `[O-][S+](CCN1CCCN(CC(O)Cc2ccccc2)CC1)C(c1ccc(F)cc1)c1ccc(F)cc1` (configuration not stated) yielded a Ki [4] of 1440 nM, a Ki [9] of 4040 nM and a Ki [1] of 8.37 nM. The Activity [10] was “Non-Toxic”, the Ki [5] was 184 nM and the Ratio Ki (Rattus norvegicus) was 421. It also gave a Ki [2] of 3520 nM, a remaining at 1 h, 10 µM [3] of 0% and a Ki [7] of 40 nM. The Ki [8] was 32 nM.
With `[O-][S+](CCN1CCN(c2ccncc2)CC1)C(c1ccc(F)cc1)c1ccc(F)cc1` (configuration not stated) the Ki [1] was 2480 nM, the Ratio Ki (Rattus norvegicus) was 1 and the Ki [2] was 3460 nM.
`COc1ccc(CC(O)CN2CCCN(CCSC(c3ccc(F)cc3)c3ccc(F)cc3)CC2)cc1` (configuration not stated) showed a Ki [1] of 16.5 nM, a Ratio Ki (Rattus norvegicus) of 22 and a Ki [2] of 360 nM.
Molecule `CC(O)CN1CCCN(CCSC(c2ccc(F)cc2)c2ccc(F)cc2)CC1` (configuration not stated) has a Ki [4] of 3300 nM, a Ki [1] of 63.4 nM and a Ki [5] of 232 nM. It also gave a Ratio Ki (Rattus norvegicus) of 38, a Ki [2] of 2430 nM and a remaining at 1 h, 10 µM [3] of 12%. For the same molecule, the Ki [7] was 163 nM and the Ki [8] was 80 nM.
Work on `OC(Cc1ccccc1)CN1CCCN(CCSC(c2ccc(F)cc2)c2ccc(F)cc2)CC1` (configuration not stated) yielded a Ki [1] of 7.23 nM, a Ratio Ki (Rattus norvegicus) of 40 and a Ki [2] of 288 nM.
`CC(F)CN1[C@H](C)CN(CC[S+]([O-])C(c2ccc(F)cc2)c2ccc(F)cc2)C[C@@H]1C` (some centres not stated) showed a Ki [1] of 1050 nM, a Ratio Ki (Rattus norvegicus) greater than 95 and a Ki [2] greater than 100000 nM.
Work on `C[C@@H](O)CN1CCC(CC[S+]([O-])C(c2ccc(F)cc2)c2ccc(F)cc2)CC1` (some centres not stated) yielded a Ki [1] of 276 nM, a Ratio Ki (Rattus norvegicus) of 126 and a Ki [2] of 34800 nM.
Molecule `C[C@H](O)CN1CCC(CCSC(c2ccc(F)cc2)c2ccc(F)cc2)CC1` has a Ki [1] of 34.5 nM, a Ratio Ki (Rattus norvegicus) of 35 and a Ki [2] of 1200 nM.
With `CC(O)CN1CCC(CC[S+]([O-])C(c2ccc(F)cc2)c2ccc(F)cc2)CC1` (configuration not stated) the Ki [9] was greater than 100000 nM, the Ki [1] was 180 nM and the Activity [10] was “Non-Toxic”. For the same molecule, the Stability [11] was 100%, the Ki [5] was 2360 nM and the Ratio Ki (Rattus norvegicus) was 89. It also gave a Ki [2] of 16100 nM, a Ki [7] of 949 nM and a Ki [8] of 355 nM.
For `Fc1ccc(C(SCCN2CCN(c3ccncc3)CC2)c2ccc(F)cc2)cc1`, the Ki [4] was 4050 nM, the Ki [1] was 91.6 nM and the Ki [5] was 393 nM. The Ratio Ki (Rattus norvegicus) was 1, the Ki [2] was 136 nM and the Ki [7] was 326 nM. For the same molecule, the Ki [8] was 106 nM.
`[O-][S+](CCN1CCCN(c2ncccn2)CC1)C(c1ccc(F)cc1)c1ccc(F)cc1` (configuration not stated) showed a Ki [1] of 24800 nM, a Ratio Ki (Rattus norvegicus) of 1 and a Ki [2] of 28000 nM.
For `[O-][S+](CCN1CCN(c2ncccn2)CC1)C(c1ccc(F)cc1)c1ccc(F)cc1` (configuration not stated), the Ki [1] was 22100 nM, the Ratio Ki (Rattus norvegicus) was 2 and the Ki [2] was 46300 nM.
`Fc1ccc(C(SCCN2CCCN(c3ncccn3)CC2)c2ccc(F)cc2)cc1` gave a Ki [1] of 508 nM, a Ratio Ki (Rattus norvegicus) of 1 and a Ki [2] of 732 nM.
`[O-][S+](CCN1CCCN(CC(O)Cc2ccc(F)cc2)CC1)C(c1ccc(F)cc1)c1ccc(F)cc1` (configuration not stated) gave a Ki [1] of 6.81 nM, a Ratio Ki (Rattus norvegicus) of 316 and a Ki [2] of 2150 nM. For the same molecule, the remaining at 1 h, 10 µM [3] was 15%.
`CC(O)CN1C(C)CN(CCSC(c2ccc(F)cc2)c2ccc(F)cc2)CC1C` (configuration not stated) showed a remaining at 1 h, 10 µM [3] of 68%.
`CC(O)CN1CCCN(CC[S+]([O-])C(c2ccc(F)cc2)c2ccc(F)cc2)CC1` (configuration not stated) showed a Ki [1] of 417 nM, a Ratio Ki (Rattus norvegicus) of 62 and a Ki [2] of 26000 nM.
For `COc1ccc(CC(O)CN2CCCN(CC[S+]([O-])C(c3ccc(F)cc3)c3ccc(F)cc3)CC2)cc1` (configuration not stated), the Ki [1] was 33.4 nM, the Ratio Ki (Rattus norvegicus) was 80 and the Ki [2] was 2670 nM. The remaining at 1 h, 10 µM [3] was 20%.
For `C[C@@H](O)CN1CCC(CCSC(c2ccc(F)cc2)c2ccc(F)cc2)CC1`, the Ki [1] was 84.5 nM, the Ratio Ki (Rattus norvegicus) was 9 and the Ki [2] was 759 nM.
For `CC(O)CN1CCN(CC[S+]([O-])C(c2ccc(F)cc2)c2ccc(F)cc2)CC1` (configuration not stated), the Ki [4] was 14400 nM, the Activity [10] was “Non-Toxic” and the remaining at 1 h, 10 µM ([11]; liver microsomes, read-out: Stability) was 72%. The Ki [5] was 7560 nM, the Ki [7] was 917 nM and the Ki [8] was 1020 nM.
`COc1ccc(N2CCN(CCSC(c3ccc(F)cc3)c3ccc(F)cc3)CC2)cc1` showed a Ki [1] of 662 nM, a Ratio Ki (Rattus norvegicus) of 1 and a Ki [2] of 780 nM.
Work on `[O-][S+](CCC1CCN(CC(O)Cc2ccccc2)CC1)C(c1ccc(F)cc1)c1ccc(F)cc1` (configuration not stated) yielded a Ki [1] of 2.64 nM, a Stability [11] of 68% and a Ratio Ki (Rattus norvegicus) of 310. The Ki [2] was 818 nM.
